Source: patent US8252781B2, “1,2-diazetidin-3-one derivatives and drugs containing same” (Kowa Company, Ltd., priority 2008, dated 2012)
Where two headings read alike, the source gives them in different places.

Experiments:
human 11β-HSD1 = target: T1, human 11β-HSD1 (Homo sapiens, UniProt P28845); assay: Enzyme inhibitory activity, human 11β-HSD1 (lysate of stably expressing HEK293 cells, cortisol by competitive ELISA); assay type: biochemical; details: human 11β-HSD1, cell lysate, 37° C. for 1 hour, read-out: h HSD1 in vitro assay (IC50 uM)
T1 construct: The obtained PCR products of about 0.9 kbp, 1.2 kbp, and 0.9 kbp were subcloned into an expression vector pcDNA3.1+/Zeo; expressed in transfected cells
T1 sequence (P28845 whole entry): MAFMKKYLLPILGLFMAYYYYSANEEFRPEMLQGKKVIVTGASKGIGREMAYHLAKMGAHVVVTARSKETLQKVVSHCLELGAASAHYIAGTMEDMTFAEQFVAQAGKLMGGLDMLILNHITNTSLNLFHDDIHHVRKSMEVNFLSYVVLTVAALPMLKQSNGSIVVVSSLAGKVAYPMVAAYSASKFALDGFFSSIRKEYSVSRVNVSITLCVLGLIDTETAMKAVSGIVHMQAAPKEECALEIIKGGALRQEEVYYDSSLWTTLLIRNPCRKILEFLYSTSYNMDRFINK
Protocol: (§1) 1. Human 11β-HSD1-, Human 11β-HSD2- and Mouse 11β-HSD1-Gene Clonings and Establishment of Stably Expressing Cells
(§2) Human 11β-HSD1-, human 11β-HSD2-, and mouse 11β-HSD1-gene clonings were conducted using as a template a reverse transcription product of human-liver RNA, human-kidney RNA (CELL APPLICATIONS), and mouse-kidney RNA respectively, by means of PCR cloning with reference to nucleotide sequences of Genbank Accession Nos. NM_005525, NM_000196, and NM_008288. The obtained PCR products of about 0.9 kbp, 1.2 kbp, and 0.9 kbp were subcloned into an expression vector pcDNA3.1+/Zeo (Invitrogen).
(§3) Human 11β-HSD1- and human 11β-HSD2-expressing vectors were transfected into human kidney-derived cell line, HEK293 cells, using a transfection reagent, jet PEI (Funakoshi). Mouse 11β-HSD1 was transfected to Chinese hamster ovary-derived cell line, CHO-K1 cells. Selection was conducted with 200-400 μg/mL of zeocine (Invitrogen) to provide stably expressing-cell clones. The stably expressing cells were suspended in buffer solution A (20 mmol/L Tris-HCl, pH 7.4, 250 mmol/L sucrose, 1 mmol/L EGTA, 1 mmol/L EDTA, 1 mmol/L MgCl2), sonicated, and then stored at −80° C.
(§4) 2. Assay of Enzyme Inhibitory Activity
(§5) An enzymatic reaction was conducted using a polystyrene 96-well plate. Each well was added with 1 μL of a test agent dissolved in DMSO and then diluted (0.003 to 3 mmol/L), and further added with 10 μL of cell lysate diluted to a concentration of 0.1 mg/mL to 0.4 mg/mL. Next, 90 μL of buffer solution A containing substrate (100 nmol/L cortisone or cortisol) and coenzyme (400 μmol/L NADPH or NAD+) was added and the mixture was incubated at 37° C. for 1 hour. The enzymatic reaction was stopped by treating at 95° C. for 3 minutes. Cortisol that was present in the reaction solution was determined by a competitive ELISA shown below.
(§6) Anti-rabbit IgG antibody (Chemi-con) diluted to 2 μg/mL with carbonate buffer solution (pH 9.6) was added in 100 μL each to a 96-well immuno plate (Nunc) and immobilized by an incubation at 4° C. overnight. 50 μL of enzymatic reaction solution was put onto the plates, and further, anti-cortisol antibody (Cosmo Bio) and HRP-labeled cortisol (Cosmo Bio), diluted with buffer solution B (25 mmol/L Tris-HCl pH 7.4, 137 mmol/L NaCl, 2.68 mmol/L KCl), were added in 50 μL respectively and incubated at 4° C. overnight. After washed three times with buffer solution B containing 0.05% Tween 20, the plates were allowed to develop color by adding 100 μL of color reagent, TMB (Moss). The color reaction was stopped by 25 μL of 1 mol/L sulfuric acid and the absorbance was determined at 450 nm with a microplate reader (Molecular Device, VersaMax).
(§7) The values of human 11β-HSD1, human 11β-HSD2, and mouse 11β-HSD1 activities were subtracted from 100, and the resultant values were regarded as the respective 11β-HSD inhibition rates of example compounds. […] The comparison of human 11β-HSD1 and human 11β-HSD2 inhibiting activities is shown in Table 1, and the comparison of human 11β-HSD1 and mouse 11β-HSD1 inhibiting activities is shown in Table 2.

mouse 11β-HSD1 = target: T2, mouse 11β-HSD1 (Mus musculus, UniProt P50172); assay: Enzyme inhibitory activity, mouse 11β-HSD1 (lysate of stably expressing CHO-K1 cells, cortisol by competitive ELISA); assay type: biochemical; details: Table 2; mouse 11β-HSD1, cell lysate, 37° C. for 1 hour; read-out: m HSD1 in vitro assay (IC50 uM)
T2 construct: The obtained PCR products of about 0.9 kbp, 1.2 kbp, and 0.9 kbp were subcloned into an expression vector pcDNA3.1+/Zeo; expressed in transfected cells
T2 sequence (P50172 whole entry): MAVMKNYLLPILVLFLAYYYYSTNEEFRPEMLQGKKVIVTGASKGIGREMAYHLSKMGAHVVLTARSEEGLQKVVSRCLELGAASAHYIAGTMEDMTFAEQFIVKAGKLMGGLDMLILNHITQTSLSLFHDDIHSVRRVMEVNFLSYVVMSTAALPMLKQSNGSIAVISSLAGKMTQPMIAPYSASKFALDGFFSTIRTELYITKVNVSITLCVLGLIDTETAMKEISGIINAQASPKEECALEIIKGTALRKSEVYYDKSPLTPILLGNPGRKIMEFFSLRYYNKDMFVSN
Protocol: as §1, §2, §3, §4, §5, §6, §7

IC50 (human 11β-HSD1; Table 1) [µM] | IC50 (mouse 11β-HSD1) [µM] | IC50 (human 11β-HSD1; Table 2) [µM] | SMILES
0.5 | 0.1 |  | CC1(C)C(=O)N(C2C3CC4CC(C3)CC2C4)N1C(=O)c1cccc(Cl)c1 (centres unmarked) [Example 128, 1-[(3-chlorophenyl)carbonyl]-4,4-dimethyl-2-(adamantan-2-yl)-1,2-diazetidin-3-one]
0.13 | 0.15 |  | Cc1ccccc1C(=O)N1N(C2C3CC4CC(C3)CC2C4)C(=O)C1(C)C (centres unmarked) [Example 116, 4,4-dimethyl-1-[(2-methylphenyl)carbonyl]-2-(adamantan-2-yl)-1,2-diazetidin-3-one]
 | 0.23 | 0.56 | CC1(C)C(=O)N(C2C3CC4CC(C3)CC2C4)N1c1ccccc1O (centres unmarked) [Example 219, 1-(2-hydroxyphenyl)-4,4-dimethyl-2-(adamantan-2-yl)-1,2-diazetidin-3-one]
 | 0.036 | 0.3 | COc1cccc(CN2N(C3C4CC5CC(C4)CC3C5)C(=O)C2(C)C)c1 (centres unmarked) [Example 54, 1-(3-methoxybenzyl)-4,4-dimethyl-2-(adamantan-2-yl)-1,2-diazetidin-3-one]
 | 0.17 | 0.75 | CC1(C)C(=O)N(C2C3CC4CC(C3)CC2C4)N1C(=O)c1ccc(Br)cc1 (centres unmarked) [Example 106, 1-[(4-bromophenyl)carbonyl]-4,4-dimethyl-2-(adamantan-2-yl)-1,2-diazetidin-3-one]
 | 0.11 | 0.54 | Cc1ccc(C(=O)N2N(C3C4CC5CC(C4)CC3C5)C(=O)C2(C)C)cc1 (centres unmarked) [Example 114, 4,4-dimethyl-1-[(4-methylphenyl)carbonyl]-2-(adamantan-2-yl)-1,2-diazetidin-3-one]
 | 0.27 | 0.47 | CC1(C)C(=O)N(C2C3CC4CC(C3)CC2C4)N1Cc1cccc(F)c1F (centres unmarked) [Example 19, 1-(2,3-difluorobenzyl)-4,4-dimethyl-2-(adamantan-2-yl)-1,2-diazetidin-3-one]
0.72 |  |  | CC1(C)C(=O)N(C2C3CC4CC(C3)CC2C4)N1C(=O)c1cc(Cl)ccc1Br (centres unmarked) [Example 163, 1-[(2-bromo-5-chlorophenyl)carbonyl]-4,4-dimethyl-2-(adamantan-2-yl)-1,2-diazetidin-3-one]
0.95 |  |  | CC1(C)C(=O)N([C@H]2C3CC4CC2C[C@](O)(C4)C3)N1c1ccccc1 [Example 226, trans-2-(5-hydroxyadamantan-2-yl)-4,4-dimethyl-1-phenyl-1,2-diazetidin-3-one]
0.66 |  |  | CC1(C)C(=O)N(C2C3CC4CC(C3)CC2C4)N1C(=O)c1ccc(F)cc1C(F)(F)F (centres unmarked) [Example 132, 1-[(4-fluoro-2-trifluoromethylphenyl)carbonyl]-4,4-dimethyl-2-(adamantan-2-yl)-1,2-diazetidin-3-one]

Continued, compound first:

SMILES | IC50 (human 11β-HSD1; Table 1) [µM] | IC50 (mouse 11β-HSD1) [µM] | IC50 (human 11β-HSD1; Table 2) [µM]
CC1(C)C(=O)N(C2C3CC4CC(C3)CC2C4)N1Cc1c(F)cccc1Cl (centres unmarked) [Example 46, 1-(2-chloro-6-fluorobenzyl)-4,4-dimethyl-2-(adamantan-2-yl)-1,2-diazetidin-3-one] |  | 0.45 | 0.23
CC1(C)C(=O)N(C2C3CC4CC(C3)CC2C4)N1C(=O)c1ccccc1I (centres unmarked) [Example 121, 1-[(2-iodophenyl)carbonyl]-4,4-dimethyl-2-(adamantan-2-yl)-1,2-diazetidin-3-one] | 0.07 |  | 
CC1(C)C(=O)N([C@H]2C3CC4CC2C[C@@](O)(C4)C3)N1c1ccccc1O [Example 244, cis-1-(2-hydroxyphenyl)-2-(5-hydroxyadamantan-2-yl)-4,4-dimethyl-1,2-diazetidin-3-one] | 0.81 |  | 
CC1(C)C(=O)N(C2C3CC4CC2CC(C(N)=O)(C4)C3)N1c1cccc2ccccc12 (stereo not drawn) [Example 273, cis-4-[2-(naphthalen-1-yl)-3,3-dimethyl-4-oxo-1,2-diazetidin-1-yl]adamantane-1-carboxamide] | 0.02 | 0.1 | 0.02
CC1(C)C(=O)N(C2CCCCCCC2)N1C(=O)c1cccc(Cl)c1 [Example 150, 1-[(3-chlorophenyl)carbonyl]-2-cyclooctyl-4,4-dimethyl-1,2-diazetidin-3-one] | 0.84 | 0.43 | 
CC1(C)C(=O)N(C2C3CC4CC(C3)CC2C4)N1Cc1cccc(Cl)c1Cl (centres unmarked) [Example 43, 1-(2,3-dichlorobenzyl)-4,4-dimethyl-2-(adamantan-2-yl)-1,2-diazetidin-3-one] |  | 0.074 | 0.072
COc1ccc(N2N([C@H]3C4CC5CC3C[C@@](O)(C5)C4)C(=O)C2(C)C)cc1 [Example 240, cis-2-(5-hydroxyadamantan-2-yl)-1-(4-methoxyphenyl)-4,4-dimethyl-1,2-diazetidin-3-one] | 0.32 |  | 
COc1ccccc1N1N(C2CC3CCC2C3)C(=O)C1(C)C (centres unmarked) [Example 223, 2-(bicyclo[2.2.1]heptan-2-yl)-1-(2-methoxyphenyl)-4,4-dimethyl-1,2-diazetidin-3-one] | 0.68 |  | 
CCc1ccccc1C(=O)N1N(C2C3CC4CC(C3)CC2C4)C(=O)C1(C)C (centres unmarked) [Example 126, 1-[(2-ethylphenyl)carbonyl]-4,4-dimethyl-2-(adamantan-2-yl)-1,2-diazetidin-3-one] | 0.11 |  | 
COCOc1ccc(N2N(C3C4CC5CC(C4)CC3C5)C(=O)C2(C)C)cc1 (centres unmarked) [Example 214, 1-[4-(methoxymethoxy)phenyl]-4,4-dimethyl-2-(adamantan-2-yl)-1,2-diazetidin-3-one] | 0.041 |  | 
Cc1ccccc1N1N([C@H]2C3CC4CC2C[C@@](O)(C4)C3)C(=O)C1(C)C [Example 242, cis-2-(5-hydroxyadamantan-2-yl)-4,4-dimethyl-1-(2-methylphenyl)-1,2-diazetidin-3-one] | 0.076 |  | 
COc1ccc(N2N([C@H]3C4CC5CC3C[C@](O)(C5)C4)C(=O)C2(C)C)cc1 [Example 230, trans-2-(5-hydroxyadamantan-2-yl)-1-(4-methoxyphenyl)-4,4-dimethyl-1,2-diazetidin-3-one] | 0.54 |  | 
Cc1ccc(C)c(C(=O)N2N(C3CCCCC3)C(=O)C2(C)C)c1 [Example 149, 2-cyclohexyl-1-[(2,5-dimethylphenyl)carbonyl]-4,4-dimethyl-1,2-diazetidin-3-one] | 0.9 |  | 
CSc1ccccc1C(=O)N1N(C2CCCCCCC2)C(=O)C1(C)C [Example 168, 2-cyclooctyl-4,4-dimethyl-1-{[2-(methylthio)phenyl]carbonyl}-1,2-diazetidin-3-one] | 0.11 |  | 
CC1(C)C(=O)N([C@H]2C3CC4CC2C[C@@](Cl)(C4)C3)N1c1cccc(Cl)c1Cl [Example 256, cis-2-(5-chloroadamantan-2-yl)-1-(2,3-dichlorophenyl)-4,4-dimethyl-1,2-diazetidin-3-one] | 0.26 |  | 
CC1(C)C(=O)N(C2CCCCCCC2)N1C(=O)c1cccc2ccccc12 [Example 154, 2-cyclooctyl-4,4-dimethyl-1-(naphthalen-1-ylcarbonyl)-1,2-diazetidin-3-one] | 0.036 |  | 
CC1(C)C(=O)N(C2C3CC4CC(C3)CC2C4)N1C(=O)c1ccccc1N (centres unmarked) [Example 136, 1-[(2-aminophenyl)carbonyl]-4,4-dimethyl-2-(adamantan-2-yl)-1,2-diazetidin-3-one] | 0.14 |  | 
CC1(C)C(=O)N(C2C3CC4CC(C3)CC2C4)N1C(=O)c1cc(Cl)ccc1Cl (centres unmarked) [Example 122, 1-[(2,5-dichlorophenyl)carbonyl]-4,4-dimethyl-2-(adamantan-2-yl)-1,2-diazetidin-3-one] | 0.32 |  | 
CSc1ccccc1C(=O)N1N(C2C3CC4CC(C3)CC2C4)C(=O)C1(C)C (centres unmarked) [Example 165, 4,4-dimethyl-1-{[2-(methylthio)phenyl]carbonyl}-2-(adamantan-2-yl)-1,2-diazetidin-3-one] | 0.096 |  | 
